Tests used:
Assay type in all cases: cell-based
[1] = system: Human Immunodeficiency Virus Type 1; assay: Anti-HIV activity: protection of MT4 T-lymphoblastoid cells (IFA)
Experimental: (§1) Activity against the Human immunodeficiency Virus (HIV) was also determined and, more specifically, the compounds antiviral effectiveness in protecting the T-lymphoblastoid cells MT4 from being infected by the virus-containing liquid of HTHIV27 cultures. The cells infected by the virus were analyzed according to the following methods: (1) An indirect immunofluorescence (IFA) with a polyclonal anti-serum was received from an HIV Infected human (the antibody titer in the IFA was 1:1000000) and, (2) A competitive IFA was utilized with monoclonal antibodies (MonAb) to p24 HIV and a polyclonal substrate. A solution of 1:540 was used in the tests. Azidothymidin (AZT) was used as the control.
The results documented in the table shown in TABLE 6 evidence that the compounds tested inhibit the reproduction of the Human Immunodeficiency Virus Type 1.

Influenza virus A = settings: Influenza virus A; 48 hours at 33-34 C; ineffective when IN less than 1.0
Influenza virus B = settings: Influenza virus B; 72 hours at 33-34 C; ineffective when IN less than 1.0
[2] = system: Human Immunodeficiency Virus; assay: Anti-HIV activity alone and in combination with azidothymidin in MT4 cells
Experimental: as §1, with “[…] The methods utilized to analyze the compounds effectiveness were the same” for “Azidothymidin (AZT) was used”, “foregoing methods.” for “control.”

[3] = system: Chlamydia trachomatis D323; assay: Protection of cell culture from Chlamydia trachomatis (immunofluorescence, cytoplasmatic inclusions)
Source text: The antiviral activity of the claimed compounds were also all tested against the Chlemydia trachomatis. The effects of the claimed compounds on the Chlamydia trachomatis are charted in TABLE 4. A relative strain of Chlamydia trachomatis D323 was used to test the claimed compounds. The strain, derived from a patient with Chlamydia urethritis, comprised a morphology and a physiological activity characteristic of and representative of that type. An infection dose of Chlamydia having a concentration of 1/10^6 cells/ml was introduced into a cell culture. Immunofluorescence (MicroTrack Chlamydia trachomatis Direct Specimen Test) was conducted to determine the significance of the chlamydial cytoplasmatic inclusions (CPI). A CylaMonoScreen was conducted to obtain the chlamydia antigens. The monolayer state and the number of cells with CPI were compared to the control to determine the effects the claimed compounds have on the chlamydia. The number of unchanged cells in 100 visual fields were counted utilizing a special net on a microscopic eyepiece.

Row | Compound | inhibition at 5 µg/mL ([1]; Human immunodeficiency virus 1, 5 mg/l, read-out: Level of inhibition of virus reproduction) [%] | inhibition at 50 µg/mL ([1]; Human immunodeficiency virus 1, 50 mg/l, read-out: Level of inhibition of virus reproduction) [%] | inhibition at 100 µg/mL ([1]; Human immunodeficiency virus 1, 100 mg/l, read-out: Level of inhibition of virus reproduction) [%] | Index of neutralization (Influenza virus A) | Index of neutralization (Influenza virus B) | inhibition at 0.5 µg/mL ([2]; Human immunodeficiency virus 1, 0.5 mg/l, read-out: Level of inhibition of virus reproduction) [%] | inhibition at 5 µg/mL ([2]; Human immunodeficiency virus 1, 5.0 mg/l, read-out: Level of inhibition of virus reproduction) [%] | Percentage of cells' defense from C. trachomatis ([3]; compound 30 mg/l) [%] | Percentage of cells' defense from C. trachomatis ([3]; compound 100 mg/l) [%] | Level of inhibition of virus reproduction ([1]; 5 mg/l) [%] | Level of inhibition of virus reproduction ([1]; 50 mg/l) [%] | Level of inhibition of virus reproduction ([1]; 100 mg/l) [%] | Level of inhibition of virus reproduction ([2]; 0.05 mg/l) [%] | Level of inhibition of virus reproduction ([2]; 5.0 mg/l) [%]
1 | O=[N+]([O-])c1ccc(C2c3c(O)nc(=S)[nH]c3Oc3[nH]c(=S)nc(Cl)c32)cc1 (centres unmarked) [Ib, 4-chlorine-6-hydroxi-5-(4-nitrophenyl)-5,9-dihydro-1H-pyrano[2,3-d: 6,5-d′]dipyrimidine-2,8-dition] | 70 | 90 | 100 | 0.5 | 0.5 | 20 | 70 | 60 | 80 | – | – | – | – | –
2 | Cc1cn([C@H]2C[C@H](N=[N+]=[N-])[C@@H](CO)O2)c(=O)[nH]c1=O [AZT, Azidothymidin, reference compound] | – | – | – | – | – | – | – | – | – | 100 | 100 | 100 | 50 | 100

— patent US7557116B2, “Substance which exhibits antiviral and antibacterial activity and is based on derivatives of 2,8-dithioxo-1H-pyrano[2,3d 6,5-d′]dipyrimidyne and 10-aza-analogue thereof” (priority 2003, dated 2009)
